Test results from ChEMBL document CHEMBL5325412, “Privileged heterocycles for DNA-encoded library design and hit-to-lead optimization” (Eur J Med Chem, 2023).
Converted amounts (≈) assume the structure as drawn.

Assays:
[1] = Binding affinity to bacterial beta-lactamase OXA-48 expressed in Escherichia coli BL21 (DE3) using nitrocefin as substrate pre-incubated for 5 mins and measured for 20 mins by spectrometric analysis; set-up: species or system Bacteria
Quadruplex DNA [2] = experiment: Binding affinity to c-MYC G4- quadruplex DNA Pu22 (unknown origin) assessed as inhibition constant by SPR analysis; assay type: nucleic-acid assay
Escherichia coli = experiment: Antibacterial activity against Escherichia coli ATCC 25922 assessed as bacterial growth inhibition measured after 16 hrs by broth dilution assay; assay type: functional
Bacillus subtilis = experiment: Antibacterial activity against Bacillus subtilis ATCC 23857 assessed as bacterial growth inhibition incubated for 16 hrs by broth dilution assay; assay type: functional
Quadruplex DNA [3] = experiment: Binding affinity to c-MYC G4 quadruplex DNA (unknown origin) assessed as dissociation constant by fluorescence titration based analysis; assay type: nucleic-acid assay
[4] = Inhibition of MAPK p68 (unknown origin); set-up: species or system Homo sapiens
[5] = molecular target: T1, Proteinase-activated receptor 2 (Homo sapiens, UniProt P55085); experiment: Antagonist activity at PAR2 (unknown origin) expressed in human 1321N1 cells; assay type: cell-based
T1 sequence (P55085 whole entry): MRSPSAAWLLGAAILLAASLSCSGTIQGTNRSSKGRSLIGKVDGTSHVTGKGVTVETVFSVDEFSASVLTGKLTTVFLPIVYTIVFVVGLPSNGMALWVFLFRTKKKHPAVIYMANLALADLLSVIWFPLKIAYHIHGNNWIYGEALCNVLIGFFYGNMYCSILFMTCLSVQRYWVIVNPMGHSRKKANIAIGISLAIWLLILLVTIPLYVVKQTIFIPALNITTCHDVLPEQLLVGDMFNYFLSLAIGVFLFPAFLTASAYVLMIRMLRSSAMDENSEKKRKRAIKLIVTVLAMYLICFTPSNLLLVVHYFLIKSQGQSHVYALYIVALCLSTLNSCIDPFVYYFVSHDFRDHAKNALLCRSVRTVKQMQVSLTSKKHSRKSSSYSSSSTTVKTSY

Prothrombin = Prothrombin (Homo sapiens, UniProt P00734); experiment: Binding affinity to thrombin (unknown origin) assessed as inhibition constant
[6] = Inhibition of Hepatitis C virus genotype 1a NS4B; set-up: species or system Hepacivirus hominis
[7] = molecular target: Mitogen-activated protein kinase 10 (Homo sapiens, UniProt P53779); experiment: Binding affinity to JNK3 (unknown origin) assessed as inhibition constant
Carbonic anhydrase 9 = Carbonic anhydrase 9 (Homo sapiens, UniProt Q16790); experiment: Inhibition of human recombinant carbonic anhydrase IX
Autotaxin = Autotaxin (Homo sapiens, UniProt Q13822); experiment: Inhibition of ATX (unknown origin)
CREB-binding protein = CREB-binding protein (Homo sapiens, UniProt Q92793); experiment: Inhibition of N-terminal His-tagged CREBBP (unknown origin) expressed in Escherichia coli BL21 (DE3)
[8] = molecular target: T2, Poly [ADP-ribose] polymerase tankyrase-1 (Homo sapiens, UniProt O95271); experiment: Binding affinity to TNKS1 (unknown origin) assessed as dissociation constant
T2 sequence (O95271 whole entry): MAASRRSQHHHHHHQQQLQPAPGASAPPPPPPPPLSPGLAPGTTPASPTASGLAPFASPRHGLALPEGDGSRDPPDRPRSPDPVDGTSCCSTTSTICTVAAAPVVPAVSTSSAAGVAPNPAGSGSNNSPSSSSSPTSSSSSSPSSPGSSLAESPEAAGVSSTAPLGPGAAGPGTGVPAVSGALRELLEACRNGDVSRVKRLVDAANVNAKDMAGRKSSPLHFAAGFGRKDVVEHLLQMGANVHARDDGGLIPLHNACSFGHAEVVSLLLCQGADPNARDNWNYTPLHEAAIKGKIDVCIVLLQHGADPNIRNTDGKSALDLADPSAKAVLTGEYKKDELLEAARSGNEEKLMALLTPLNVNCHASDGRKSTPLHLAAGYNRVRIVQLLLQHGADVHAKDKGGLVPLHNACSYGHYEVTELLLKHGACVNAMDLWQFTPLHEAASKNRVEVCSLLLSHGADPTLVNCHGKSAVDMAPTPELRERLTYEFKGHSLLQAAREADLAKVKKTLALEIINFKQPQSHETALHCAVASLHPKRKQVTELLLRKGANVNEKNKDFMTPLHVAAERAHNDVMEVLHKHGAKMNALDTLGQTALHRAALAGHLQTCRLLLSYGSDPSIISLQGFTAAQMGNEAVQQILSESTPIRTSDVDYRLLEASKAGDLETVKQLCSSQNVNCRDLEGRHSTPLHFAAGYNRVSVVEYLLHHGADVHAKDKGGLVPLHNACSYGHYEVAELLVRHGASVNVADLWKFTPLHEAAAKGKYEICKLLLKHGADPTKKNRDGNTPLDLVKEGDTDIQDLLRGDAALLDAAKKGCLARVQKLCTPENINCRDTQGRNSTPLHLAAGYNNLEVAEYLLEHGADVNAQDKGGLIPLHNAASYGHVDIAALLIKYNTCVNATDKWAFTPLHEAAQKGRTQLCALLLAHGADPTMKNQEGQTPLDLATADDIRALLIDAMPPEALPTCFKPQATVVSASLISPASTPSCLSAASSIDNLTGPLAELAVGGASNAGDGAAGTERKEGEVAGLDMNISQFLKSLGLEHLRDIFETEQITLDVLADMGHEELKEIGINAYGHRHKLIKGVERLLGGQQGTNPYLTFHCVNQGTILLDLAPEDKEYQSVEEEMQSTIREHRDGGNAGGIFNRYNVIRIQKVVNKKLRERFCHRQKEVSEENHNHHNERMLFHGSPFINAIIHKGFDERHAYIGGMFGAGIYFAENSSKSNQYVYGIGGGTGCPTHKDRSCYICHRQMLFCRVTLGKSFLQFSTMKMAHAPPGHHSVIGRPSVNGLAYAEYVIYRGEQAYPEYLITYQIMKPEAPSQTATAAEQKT

[9] = molecular target: Mitogen-activated protein kinase 8 (Homo sapiens, UniProt P45983); experiment: Binding affinity to JNK1 (unknown origin) assessed as dissociation constant
[10] = Binding affinity to Peptoid-inspired conformationally constrained oligomer (unknown origin) assessed as dissociation constant
[11] = molecular target: T3, 2',5'-phosphodiesterase 12 (Homo sapiens, UniProt Q6L8Q7); experiment: Binding affinity to PDE12 (unknown origin) (17 to 609 residues) assessed as inhibition constant by AMP-glo reagent based assay
T3 sequence (Q6L8Q7 whole entry): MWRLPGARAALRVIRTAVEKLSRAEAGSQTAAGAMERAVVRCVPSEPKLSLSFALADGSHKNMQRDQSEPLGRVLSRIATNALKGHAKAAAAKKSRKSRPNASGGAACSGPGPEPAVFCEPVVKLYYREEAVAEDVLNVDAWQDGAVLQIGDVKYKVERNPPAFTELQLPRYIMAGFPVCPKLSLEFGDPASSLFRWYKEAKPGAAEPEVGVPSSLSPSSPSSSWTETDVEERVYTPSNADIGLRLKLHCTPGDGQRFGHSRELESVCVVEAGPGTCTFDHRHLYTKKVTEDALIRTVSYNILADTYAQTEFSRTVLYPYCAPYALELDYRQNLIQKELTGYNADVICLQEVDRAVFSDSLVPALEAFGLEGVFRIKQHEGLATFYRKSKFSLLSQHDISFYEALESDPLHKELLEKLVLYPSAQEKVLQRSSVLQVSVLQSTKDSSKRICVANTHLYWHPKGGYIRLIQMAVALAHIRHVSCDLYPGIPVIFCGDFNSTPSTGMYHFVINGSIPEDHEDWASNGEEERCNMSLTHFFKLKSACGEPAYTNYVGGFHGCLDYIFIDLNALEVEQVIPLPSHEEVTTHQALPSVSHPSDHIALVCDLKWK

Albumin = Albumin (Homo sapiens, UniProt P02768); experiment: Binding affinity to human serum albumin by fluorescence polarization assay
[12] = Solubility of the compound; assay type: physicochemical

Chain of CREB-binding protein (Q92793 whole entry): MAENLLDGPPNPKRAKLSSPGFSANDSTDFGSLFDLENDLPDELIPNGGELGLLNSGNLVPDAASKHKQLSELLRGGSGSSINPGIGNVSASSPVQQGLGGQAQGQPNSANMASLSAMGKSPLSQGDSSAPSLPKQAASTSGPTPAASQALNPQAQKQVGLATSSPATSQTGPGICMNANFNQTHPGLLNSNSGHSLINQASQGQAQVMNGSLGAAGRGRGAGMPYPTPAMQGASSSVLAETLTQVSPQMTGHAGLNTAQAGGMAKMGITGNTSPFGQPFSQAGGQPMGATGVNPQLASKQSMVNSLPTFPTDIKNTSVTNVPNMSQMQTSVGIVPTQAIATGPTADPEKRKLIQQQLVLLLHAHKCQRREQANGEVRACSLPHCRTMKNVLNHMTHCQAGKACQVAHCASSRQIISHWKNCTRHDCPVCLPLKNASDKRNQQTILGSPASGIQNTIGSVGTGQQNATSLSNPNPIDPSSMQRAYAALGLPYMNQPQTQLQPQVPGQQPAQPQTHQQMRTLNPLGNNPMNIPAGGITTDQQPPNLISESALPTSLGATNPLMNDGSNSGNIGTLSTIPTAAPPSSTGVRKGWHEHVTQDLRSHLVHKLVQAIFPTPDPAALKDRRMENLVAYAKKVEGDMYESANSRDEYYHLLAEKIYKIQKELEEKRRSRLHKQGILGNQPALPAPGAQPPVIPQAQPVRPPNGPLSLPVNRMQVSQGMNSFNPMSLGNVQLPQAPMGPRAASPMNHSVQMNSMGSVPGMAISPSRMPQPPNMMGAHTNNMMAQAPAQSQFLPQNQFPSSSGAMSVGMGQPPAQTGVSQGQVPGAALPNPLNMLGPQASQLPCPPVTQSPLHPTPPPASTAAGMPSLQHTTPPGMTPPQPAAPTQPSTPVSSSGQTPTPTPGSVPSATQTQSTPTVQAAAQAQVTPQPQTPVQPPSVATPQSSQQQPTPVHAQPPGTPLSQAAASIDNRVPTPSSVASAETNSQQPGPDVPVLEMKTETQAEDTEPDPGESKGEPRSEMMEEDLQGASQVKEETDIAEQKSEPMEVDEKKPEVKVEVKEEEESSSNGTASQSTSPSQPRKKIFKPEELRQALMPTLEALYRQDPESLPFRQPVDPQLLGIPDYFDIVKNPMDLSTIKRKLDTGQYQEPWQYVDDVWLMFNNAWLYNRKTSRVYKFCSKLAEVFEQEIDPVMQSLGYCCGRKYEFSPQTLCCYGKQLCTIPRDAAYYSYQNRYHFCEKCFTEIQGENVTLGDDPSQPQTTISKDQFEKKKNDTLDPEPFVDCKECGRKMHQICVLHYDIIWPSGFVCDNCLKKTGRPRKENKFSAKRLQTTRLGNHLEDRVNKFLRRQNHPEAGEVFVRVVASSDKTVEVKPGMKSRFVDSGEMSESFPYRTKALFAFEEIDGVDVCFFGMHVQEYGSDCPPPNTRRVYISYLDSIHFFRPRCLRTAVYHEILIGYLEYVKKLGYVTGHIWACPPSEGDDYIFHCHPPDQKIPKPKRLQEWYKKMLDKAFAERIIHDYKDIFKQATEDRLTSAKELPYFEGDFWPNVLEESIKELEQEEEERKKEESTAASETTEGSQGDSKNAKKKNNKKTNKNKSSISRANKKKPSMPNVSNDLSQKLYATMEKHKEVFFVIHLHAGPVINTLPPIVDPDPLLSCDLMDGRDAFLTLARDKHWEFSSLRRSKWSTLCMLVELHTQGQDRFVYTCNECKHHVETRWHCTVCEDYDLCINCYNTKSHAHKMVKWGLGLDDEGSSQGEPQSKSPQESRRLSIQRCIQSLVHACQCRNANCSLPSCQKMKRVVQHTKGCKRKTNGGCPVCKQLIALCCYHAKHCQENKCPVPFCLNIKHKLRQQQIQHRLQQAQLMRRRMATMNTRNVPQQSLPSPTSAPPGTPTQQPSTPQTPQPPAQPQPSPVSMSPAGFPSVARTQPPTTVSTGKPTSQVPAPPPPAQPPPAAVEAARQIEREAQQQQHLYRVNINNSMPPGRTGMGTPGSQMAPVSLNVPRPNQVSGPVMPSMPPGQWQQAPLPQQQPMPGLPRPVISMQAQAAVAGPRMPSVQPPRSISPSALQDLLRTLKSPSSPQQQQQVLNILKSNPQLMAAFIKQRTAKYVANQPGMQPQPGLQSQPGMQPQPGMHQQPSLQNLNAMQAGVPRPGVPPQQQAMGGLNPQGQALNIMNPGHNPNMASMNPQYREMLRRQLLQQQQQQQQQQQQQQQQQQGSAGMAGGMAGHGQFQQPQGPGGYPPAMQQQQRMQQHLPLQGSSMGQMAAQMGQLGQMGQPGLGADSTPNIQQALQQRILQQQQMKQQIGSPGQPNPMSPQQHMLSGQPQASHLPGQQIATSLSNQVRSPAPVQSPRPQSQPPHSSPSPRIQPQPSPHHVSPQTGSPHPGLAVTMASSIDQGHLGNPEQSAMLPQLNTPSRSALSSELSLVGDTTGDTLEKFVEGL
Chain of Albumin (P02768 whole entry): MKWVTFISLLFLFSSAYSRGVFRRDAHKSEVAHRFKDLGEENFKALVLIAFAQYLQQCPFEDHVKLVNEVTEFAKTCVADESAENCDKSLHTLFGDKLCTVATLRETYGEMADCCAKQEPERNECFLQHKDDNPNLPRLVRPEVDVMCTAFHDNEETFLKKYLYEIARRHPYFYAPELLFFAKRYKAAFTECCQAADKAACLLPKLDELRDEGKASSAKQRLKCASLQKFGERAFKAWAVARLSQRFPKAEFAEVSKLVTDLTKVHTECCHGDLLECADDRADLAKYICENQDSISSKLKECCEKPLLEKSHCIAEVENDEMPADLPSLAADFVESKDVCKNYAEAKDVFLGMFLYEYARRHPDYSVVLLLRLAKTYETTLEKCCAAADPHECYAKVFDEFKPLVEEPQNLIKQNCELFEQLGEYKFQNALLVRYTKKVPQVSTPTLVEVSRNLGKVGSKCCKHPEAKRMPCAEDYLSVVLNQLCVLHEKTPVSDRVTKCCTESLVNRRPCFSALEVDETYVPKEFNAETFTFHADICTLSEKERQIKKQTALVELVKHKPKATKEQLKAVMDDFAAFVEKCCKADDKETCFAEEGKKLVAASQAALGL
Chain of Mitogen-activated protein kinase 10 (P53779 whole entry): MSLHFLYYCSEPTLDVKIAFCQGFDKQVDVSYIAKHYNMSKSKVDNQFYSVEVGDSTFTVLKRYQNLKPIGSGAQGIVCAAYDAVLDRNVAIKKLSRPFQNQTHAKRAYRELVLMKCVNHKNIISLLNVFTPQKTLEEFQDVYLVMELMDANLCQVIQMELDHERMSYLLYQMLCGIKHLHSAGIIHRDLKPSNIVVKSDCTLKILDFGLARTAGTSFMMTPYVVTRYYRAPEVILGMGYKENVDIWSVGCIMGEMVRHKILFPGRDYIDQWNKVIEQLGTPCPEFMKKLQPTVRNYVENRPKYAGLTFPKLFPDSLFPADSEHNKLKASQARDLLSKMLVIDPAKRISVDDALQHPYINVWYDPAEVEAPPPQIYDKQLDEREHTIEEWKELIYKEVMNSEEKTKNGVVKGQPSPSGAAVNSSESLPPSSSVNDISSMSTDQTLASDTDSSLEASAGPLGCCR
Chain of Mitogen-activated protein kinase 8 (P45983 whole entry): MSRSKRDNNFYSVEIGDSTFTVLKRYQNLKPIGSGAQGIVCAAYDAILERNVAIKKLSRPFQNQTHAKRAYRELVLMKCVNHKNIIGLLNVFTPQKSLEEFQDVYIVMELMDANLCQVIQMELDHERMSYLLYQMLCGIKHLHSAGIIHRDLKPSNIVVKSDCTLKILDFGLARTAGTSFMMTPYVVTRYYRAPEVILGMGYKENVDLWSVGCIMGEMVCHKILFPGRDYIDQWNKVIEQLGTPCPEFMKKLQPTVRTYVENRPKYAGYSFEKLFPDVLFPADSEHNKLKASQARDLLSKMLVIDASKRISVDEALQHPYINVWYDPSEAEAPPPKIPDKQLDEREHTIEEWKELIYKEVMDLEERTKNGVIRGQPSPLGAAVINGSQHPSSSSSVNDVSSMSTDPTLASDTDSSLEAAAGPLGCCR

`CCOc1ccccc1N1CCN(c2ncnc(N3CCC(S(=O)(=O)O)CC3)n2)CC1` gave a Ki [1] of 260 nM.
Work on `Cc1cnccc1N1CCN(c2nccc3c2nc(-c2c[nH]c4ccncc24)n3C)CC1` yielded a Ki (Quadruplex DNA [2]) of 328 nM.
`O=C(O)c1cn(C2CC2)c2nc(N3CCNCC3)c(F)cc2c1=O` showed an MIC (Escherichia coli) of 0.016 µg/mL (≈ 0.0481 µM) and an MIC (Bacillus subtilis) of 0.063 µg/mL (≈ 0.19 µM).
Molecule `CNC(=O)CN(Cc1ccc(OCC(=O)NCc2nc3ccccc3c(=O)[nH]2)c(Cl)c1)Cc1cccn1C` has a Kd (Quadruplex DNA [3]) of 1050 nM.
Work on `COc1ccc(Nc2nc(NCCc3ccccc3F)nc(Nc3ccc4ncccc4c3)n2)cc1OC` yielded an IC50 [4] of 2100 nM.
`CC(C1CCCCC1)n1c(-c2cc3c(cc2Br)OCO3)nc2cc(C(=O)Nc3ccc(C#N)cc3)ccc21` (stereo unspecified) showed an IC50 [5] of 23 nM.
Molecule `CNC(=O)[C@@H]1CN(C(=O)[C@@H](Cc2ccccc2CNC(=N)N)NC(=O)N(C)C2CCOc3ccccc32)C[C@H]1c1ccc(OC)cc1` (stereo partly specified) has a Ki (Prothrombin) of 1 nM.
For `O=C(c1ccc2[nH]ccc2c1)N1CCC2(CCCN(c3ncc(-c4ccccc4)c(-c4ccc(Cl)cc4)n3)C2)CC1`, the IC50 [6] was 42.1 nM.
Molecule `CCn1c(-c2ccccc2-c2ccc(C)cc2C)nc2cc(C(=O)NC)ccc21` has a Ki [7] of 1.2 nM.
Molecule `O=C(c1ccccc1)N1CCC2(CCCN(c3ncc(-c4ccccc4)c(-c4ccc(Cl)cc4)n3)C2)CC1` has an IC50 [6] of 45.8 nM.
In the case of `CNC(=O)[C@@H]1[C@@H](c2ccc(-c3ccc(S(N)(=O)=O)cc3)cc2)CN1Cc1ccc(O)c2ncccc12`, the IC50 (Carbonic anhydrase 9) is reported as 20.1 nM.
`NC(=O)CN1CN(c2ccccc2)C2(CCN(C(=O)CCc3ccc(Cl)cc3Cl)CC2)C1=O` showed an IC50 (Autotaxin) of 2800 nM.
For `C[C@@H]1CC(=O)Cc2cccc(C(=O)NCCNC(=O)CSC(=S)c3ccccc3)c2N1`, the IC50 (CREB-binding protein) was 17000 nM.
With `Cc1cn(CC(=O)N[C@@H](CCCCn2cc(-c3ccncc3F)nn2)C(N)=O)c(=O)[nH]c1=O` the Kd [8] was 15 nM.
In the case of `O=C(/C=C/C(=O)c1ccc(F)c(F)c1)NCCOCCOCCNC(=O)c1cccnc1Oc1ccccc1`, the Kd [9] is reported as 1000 nM.
Molecule `NC(=O)c1coc(CN(Cc2ccc3c(c2)OCO3)C(=O)c2coc(CN(Cc3ccc4c(c3)OCO4)C(=O)c3ncc(CCl)o3)n2)n1` has a Kd [10] of 30 nM.
For `CCOc1ccccc1N1CCN(c2ncnc(N3CCC(C(=O)O)CC3)n2)CC1`, the Ki [1] was 530 nM.
In the case of `Cn1c(-c2c[nH]c3cc(C#N)ccc23)nc2ccc(C(=O)N3CCOC(c4ccccc4)C3CO)cc21` (stereo unspecified), the Ki [11] is reported as 17.5 nM.
`NCCOCCOCCNC(=O)c1cccc(NC(=O)OC2CCN(C(=O)c3ccc(-c4nc5ccccc5[nH]4)cc3)CC2)c1` gave a Ki (Albumin) of 49.7 nM and a solubility [12] of 54 µg/mL (≈ 87.8 µM).
